Where “and” joins values, the source holds several entries; their conditions need not be identical. Identical values can stand only once. Entries after “also recorded” stand apart in the source; their conditions may differ. Like-named read-outs stand apart in the source and are kept apart here.
Legend:
TR-BBB cells [1] = assay: Inhibition of [14C]L-citrulline uptake in TR-BBB cells by unlabeled amino acids, transporter inhibitors and drugs; assay type: cell-based, rat; conditions: for Effect on [14C]L-citrulline uptake: unlabeled compound present
Experimental: (§1) The TR-BBB cells established from transgenic rats harboring the temperature-sensitive simian virus 40 large T-antigen, an in vitro BBB model, were cultured at 33 °C as described previously (21). TR-BBB cells were received from Professor Tetsuya Terasaki (Tohoku University, Japan) and were cultured with Dulbecco’s modified Eagle’s medium (Invitrogen, San Diego, CA), supplemented with 10% fetal bovine serum, 100 U/mL penicillin, 100 μg/mL streptomycin (Invitrogen, San Diego, CA) and 15 μg/L endothelial cell growth factor (Roche, Mannheim, Germany) at 33 °C in a humidified atmosphere of 5% CO2/air. On rat tail collagen type I-coated 24 well culture plates (IWAKI, Tokyo, Japan) initial seeding was carried out at 1 × 10^5 cells/well for the uptake study. After incubation for 2 days at 33 °C, the cultures became confluent and then they were used in the transport study. L-Citrulline free medium was used all experiments except for experiments on saturation kinetics of [^14C]L-citrulline uptake (Fig. 2), Lineweaver-Burk plots for [^14C]L-citrulline uptake (Fig. 4), or inhibitory effect of L-amino acids as a control (Table 2).
(§2) The [^14C] L-citrulline uptake study was performed according to the previous report. Briefly, extracellular fluid (ECF) buffer containing [^14C]L-citrulline (44.4 μM) in the presence or absence of unlabeled inhibitors was added to the TR-BBB cells and then incubated at pH 7.4 and 37 °C for the designated time (5 min). Uptake was terminated by the addition of ice-cold ECF buffer. A Na^+ free transport medium was prepared by using LiCl, choline chloride, sodium gluconate and KHCO3 instead of NaCl and NaHCO3, respectively. The cells were then solubilized by incubation overnight in 750 μL of 1 N NaOH at room temperature, and the measurement of radioactivity was performed in a liquid scintillation counter (LS6500; Beckman, Fullerton, CA). Cell to medium ratio (μL/mg protein) was calculated as follows: the radioactivity (dpm/μL) in the sample per milligram cell protein (dpm/mg protein).
To analyze the competitive nature of L-dopa and gabapentin for [^14C]L-citrulline uptake, Lineweaver-Burk plots were generated. The inhibitory constant (K i) was calculated from Eq. (2):2 V=Vmax⋅C/Km⋅1+I/Ki+C where I corresponds to the concentration of L-dopa or gabapentin, respectively.

TR-BBB cells [2] = assay: [14C]L-citrulline uptake study in TR-BBB cells (time course, ion dependence, saturation kinetics); assay type: in vitro ADME, rat
Experimental: as §1, §2
For kinetic studies, the Michaelis-Menten constant (K m) and the maximum uptake rate (V max) of [^14C] L-citrulline were estimated from Eq. (1):1 V=Vmax⋅C/Km+C
Where V and C are the initial uptake rate of [^14C] L-citrulline at 5 min and the concentration of L-citrulline, and V max is the maximum uptake rate for the saturable component.

[3] = Rattus norvegicus, 5 min, Table 4, drug 2 mM, pH 7.4, 37 °C, 5 min, mean ± S.E.M., read-out: Uptake of [14C]L-citrulline (% of control)
[4] = Table 2, L-amino acid 2 mM, pH 7.4, 37 °C, 5 min, mean ± S.E.M.
[5] = Table 2, L-amino acid 20 mM, pH 7.4, 37 °C, 5 min, mean ± S.E.M.
[6] = Rattus norvegicus, 5 min, Table 2, L-amino acid 2 mM, pH 7.4, 37 °C, 5 min, mean ± S.E.M., read-out: Uptake of [14C]L-citrulline (% of control)
[7] = Rattus norvegicus, 5 min, pH 7.4, read-out: Uptake of [14C]L-citrulline (% of control), Table 2, L-amino acid 2 mM, pH 7.4, 37 °C, 5 min, mean ± S.E.M.

CNC(C)(C)C(=O)O [MeAIB, N-(methylamino) isobutyric acid]
Effect on [14C]L-citrulline uptake (TR-BBB cells [1]; TR-BBB cells): no inhibition effect | Uptake of [14C]L-citrulline (% of control) (TR-BBB cells [1]; Table 3, transporter inhibitor 2 mM, pH 7.4, 37 °C, 5 min, mean ± S.E.M.): 99.8 ± 6.3 % of control

COc1ccc2c3c([nH]c2c1)C(C)=NCC3 [Harmaline]
Decrease of [14C]L-citrulline uptake (TR-BBB cells [1]; discussion of Table 3): about 40%

NCCS(=O)(=O)O [Taurine]
activity at 2000 µM (TR-BBB cells [1]; [3]): 90.5 ± 4.4% | Effect on [14C]L-citrulline uptake (TR-BBB cells [1]; TR-BBB cells): no significant effects

NCCCC[C@H](N)C(=O)O [L-Lysine]
Effect on [14C]L-citrulline uptake (TR-BBB cells [1]; TR-BBB cells): significantly inhibited | Uptake of [14C]L-citrulline (% of control) (TR-BBB cells [1]; [4]): 74.5 ± 9.0 % of control | Uptake of [14C]L-citrulline (% of control) (TR-BBB cells [1]; [5]): 66.78 ± 2.1 % of control

NC(=O)CC[C@H](N)C(=O)O [L-Glutamine]
activity at 2000 µM (TR-BBB cells [1]; [6]): 37.5 ± 1.3%

N[C@@H](CO)C(=O)O [L-Serine]
activity at 2000 µM (TR-BBB cells [1]; [6]): 79.7 ± 2.5% | Effect on [14C]L-citrulline uptake (TR-BBB cells [1]; TR-BBB cells): significantly inhibited

N[C@@H](Cc1ccccc1)C(=O)O [L-Phenylalanine]
IC50 (TR-BBB cells [1]; Rattus norvegicus, 5 min, TR-BBB cells, 5 min, pH 7.4, 37 °C, read-out: IC50 for inhibition of [14C]L-citrulline uptake): 0.0689 mM | Effect on [14C]L-citrulline uptake (TR-BBB cells [1]; TR-BBB cells): strongly inhibited | Uptake of [14C]L-citrulline (% of control) (TR-BBB cells [1]; [4]): 13.7 ± 1.8 % of control | Uptake of [14C]L-citrulline (% of control) (TR-BBB cells [1]; [5]): 13.4 ± 1.4 % of control

C[N+](C)(C)CCO.[Cl-] [Choline Chloride, choline chloride]
Uptake of [14C]L-citrulline (% of control) (TR-BBB cells [2]; ion dependence: Na+ and/or Cl- replaced in the uptake buffer by the named salt, pH 7.4, 37 °C, 5 min, mean ± S.E.M.): 83.3 ± 5.7 % of control

NCCc1ccc(O)c(O)c1 [Dopamine]
activity at 2000 µM (TR-BBB cells [1]; [3]): 110 ± 2.7% | Effect on [14C]L-citrulline uptake (TR-BBB cells [1]; TR-BBB cells): no effect; also recorded: no significant effects

C[C@H](N)C(=O)O [L-Alanine]
Effect on [14C]L-citrulline uptake (TR-BBB cells [1]; TR-BBB cells): significantly inhibited | Uptake of [14C]L-citrulline (% of control) (TR-BBB cells [1]; [4]): 73.0 ± 6.4 % of control

NC(=O)NCCC[C@H](N)C(=O)O [L-Citrulline]
Time-course of [14C]L-citrulline uptake (TR-BBB cells [2]; 44.4 μM, 37 °C, ECF buffer): linear for 5 min | Ion dependence of [14C]L-citrulline uptake (TR-BBB cells [2]; absence of Na+ or Cl- in the uptake buffer): no significant difference | Michaelis-Menten constant Km1 of [14C]L-citrulline uptake (TR-BBB cells [2]; first (Km1) of two saturable components, 0–5 mM unlabeled L-citrulline, 5 min, pH 7.4, 37 °C): 30.9 ± 1.0 µM and 30.9 µM | Vmax1 of [14C]L-citrulline uptake (TR-BBB cells [2]; first saturable component, 5 min, pH 7.4, 37 °C): 185 nmol/mg/min | Michaelis-Menten constant Km2 of [14C]L-citrulline uptake (TR-BBB cells [2]; second (Km2) of two saturable components, 0–5 mM unlabeled L-citrulline, 5 min, pH 7.4, 37 °C): 1.69 ± 0.43 mM and 1.69 mM | Vmax2 of [14C]L-citrulline uptake (TR-BBB cells [2]; second saturable component, 5 min, pH 7.4, 37 °C): 3.19 µmol/mg/min | activity at 2000 µM (TR-BBB cells [1]; [7]): 36 ± 2.1%

N=C(N)NCCC[C@H](N)C(=O)O [L-Arginine]
IC50 (TR-BBB cells [1]; Rattus norvegicus, 5 min, pH 7.4, read-out: IC50 for inhibition of [14C]L-citrulline uptake): 33.4 mM | activity at 2000 µM (TR-BBB cells [1]; [7]): 59.9 ± 6.6% | activity at 20000 µM (TR-BBB cells [1]; Rattus norvegicus, 5 min, pH 7.4, read-out: Uptake of [14C]L-citrulline (% of control), Table 2, L-amino acid 20 mM, pH 7.4, 37 °C, 5 min, mean ± S.E.M.): 53.2 ± 4.4% | Effect on [14C]L-citrulline uptake (TR-BBB cells [1]; TR-BBB cells): significantly inhibited

Nc1c2c(nc3ccccc13)CCCC2 [tacrine]
Effect on [14C]L-citrulline uptake (TR-BBB cells [1]; TR-BBB cells): no significant inhibition effect
